{
  "source": "the supplement of paper PMC10307832",
  "assay_in_all_cases": "relative viability (nuclei count vs DMSO), 5 days (fraction); higher = more cells survive",
  "key": {"Dactolisib + Olaparib": {"compound": "Cn1c(=O)n(-c2ccc(C(C)(C)C#N)cc2)c2c3cc(-c4cnc5ccccc5c4)ccc3ncc21 [Dactolisib] + O=C(c1cc(Cc2n[nH]c(=O)c3ccccc23)ccc1F)N1CCN(C(=O)C2CC2)CC1 [Olaparib] (partner 8 µM)", "method_in_brief": "(§1)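 Five library-drug doses in √10 steps were combined with a fixed anchor-drug dose, or a single drug was given alone, by pin tool to lung cancer cell lines in 1536-well plates the day after seeding. Nuclei were stained and counted after 5 days. Relative viability is the nuclei count in treated wells over that in vehicle wells, taken as the median of duplicate plates.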"}, "Dactolisib + Crizotinib": {"compound": "Cn1c(=O)n(-c2ccc(C(C)(C)C#N)cc2)c2c3cc(-c4cnc5ccccc5c4)ccc3ncc21 [Dactolisib] + C[C@@H](Oc1cc(-c2cnn(C3CCNCC3)c2)cnc1N)c1c(Cl)ccc(F)c1Cl [Crizotinib] (partner 1 µM)", "method_in_brief": "as §1"}, "AZ505 + Linsitinib": {"compound": "C1CCC(CC1)N(CCNCCC2=C3C(=C(C=C2)O)NC(=O)CO3)C(=O)CCNCCC4=CC(=C(C=C4)Cl)Cl [AZ505] + C[C@]1(O)C[C@@H](c2nc(-c3ccc4ccc(-c5ccccc5)nc4c3)c3c(N)nccn32)C1 [Linsitinib] (partner 1 µM)", "method_in_brief": "as §1"}, "Dactolisib + Pemetrexed": {"compound": "Cn1c(=O)n(-c2ccc(C(C)(C)C#N)cc2)c2c3cc(-c4cnc5ccccc5c4)ccc3ncc21 [Dactolisib] + Nc1nc2[nH]cc(CCc3ccc(C(=O)N[C@@H](CCC(=O)O)C(=O)O)cc3)c2c(=O)[nH]1 [Pemetrexed] (partner 0.2 µM)", "method_in_brief": "as §1"}},
  "data": [
    {"cell line": "LCLC-97TM1", "values": [
      {"measurement": "relative viability", "setting": "Dactolisib + Olaparib; first compound 0.002 µM", "result": 0.383},
      {"measurement": "relative viability", "setting": "Dactolisib + Olaparib; first compound 0.006325 µM", "result": 0.416},
      {"measurement": "relative viability", "setting": "Dactolisib + Olaparib; first compound 0.02 µM", "result": 0.319},
      {"measurement": "relative viability", "setting": "Dactolisib + Olaparib; first compound 0.06325 µM", "result": 0.256},
      {"measurement": "relative viability", "setting": "Dactolisib + Olaparib; first compound 0.2 µM", "result": 0.093},
      {"measurement": "relative viability", "setting": "Dactolisib + Crizotinib; first compound 0.002 µM", "result": 0.509},
      {"measurement": "relative viability", "setting": "Dactolisib + Crizotinib; first compound 0.006325 µM", "result": 0.373},
      {"measurement": "relative viability", "setting": "Dactolisib + Crizotinib; first compound 0.02 µM", "result": 0.277},
      {"measurement": "relative viability", "setting": "Dactolisib + Crizotinib; first compound 0.06325 µM", "result": 0.149},
      {"measurement": "relative viability", "setting": "Dactolisib + Crizotinib; first compound 0.2 µM", "result": 0.145},
      {"measurement": "relative viability", "setting": "AZ505 + Linsitinib; first compound 0.08 µM", "result": 0.257},
      {"measurement": "relative viability", "setting": "AZ505 + Linsitinib; first compound 0.253 µM", "result": 0.2},
      {"measurement": "relative viability", "setting": "AZ505 + Linsitinib; first compound 0.8 µM", "result": 0.16},
      {"measurement": "relative viability", "setting": "AZ505 + Linsitinib; first compound 2.53 µM", "result": 0.201},
      {"measurement": "relative viability", "setting": "AZ505 + Linsitinib; first compound 8 µM", "result": 0.199},
      {"measurement": "relative viability", "setting": "Dactolisib + Pemetrexed; first compound 0.002 µM", "result": 0.169},
      {"measurement": "relative viability", "setting": "Dactolisib + Pemetrexed; first compound 0.006325 µM", "result": 0.158},
      {"measurement": "relative viability", "setting": "Dactolisib + Pemetrexed; first compound 0.02 µM", "result": 0.186},
      {"measurement": "relative viability", "setting": "Dactolisib + Pemetrexed; first compound 0.06325 µM", "result": 0.192},
      {"measurement": "relative viability", "setting": "Dactolisib + Pemetrexed; first compound 0.2 µM", "result": 0.16}
    ]},
    {"cell line": "NCI-H596", "values": [
      {"measurement": "relative viability", "setting": "Dactolisib + Olaparib; first compound 0.002 µM", "result": 0.656},
      {"measurement": "relative viability", "setting": "Dactolisib + Olaparib; first compound 0.006325 µM", "result": 0.719},
      {"measurement": "relative viability", "setting": "Dactolisib + Olaparib; first compound 0.02 µM", "result": 0.527},
      {"measurement": "relative viability", "setting": "Dactolisib + Olaparib; first compound 0.06325 µM", "result": 0.417},
      {"measurement": "relative viability", "setting": "Dactolisib + Olaparib; first compound 0.2 µM", "result": 0.329},
      {"measurement": "relative viability", "setting": "Dactolisib + Crizotinib; first compound 0.002 µM", "result": 0.974},
      {"measurement": "relative viability", "setting": "Dactolisib + Crizotinib; first compound 0.006325 µM", "result": 0.874},
      {"measurement": "relative viability", "setting": "Dactolisib + Crizotinib; first compound 0.02 µM", "result": 0.742},
      {"measurement": "relative viability", "setting": "Dactolisib + Crizotinib; first compound 0.06325 µM", "result": 0.595},
      {"measurement": "relative viability", "setting": "Dactolisib + Crizotinib; first compound 0.2 µM", "result": 0.395},
      {"measurement": "relative viability", "setting": "AZ505 + Linsitinib; first compound 0.08 µM", "result": 0.953},
      {"measurement": "relative viability", "setting": "AZ505 + Linsitinib; first compound 0.253 µM", "result": 0.932},
      {"measurement": "relative viability", "setting": "AZ505 + Linsitinib; first compound 0.8 µM", "result": 0.933},
      {"measurement": "relative viability", "setting": "AZ505 + Linsitinib; first compound 2.53 µM", "result": 1},
      {"measurement": "relative viability", "setting": "AZ505 + Linsitinib; first compound 8 µM", "result": 0.908},
      {"measurement": "relative viability", "setting": "Dactolisib + Pemetrexed; first compound 0.002 µM", "result": 0.457},
      {"measurement": "relative viability", "setting": "Dactolisib + Pemetrexed; first compound 0.006325 µM", "result": 0.428},
      {"measurement": "relative viability", "setting": "Dactolisib + Pemetrexed; first compound 0.02 µM", "result": 0.513},
      {"measurement": "relative viability", "setting": "Dactolisib + Pemetrexed; first compound 0.06325 µM", "result": 0.41},
      {"measurement": "relative viability", "setting": "Dactolisib + Pemetrexed; first compound 0.2 µM", "result": 0.401}
    ]},
    {"cell line": "H3255", "values": [
      {"measurement": "relative viability", "setting": "Dactolisib + Olaparib; first compound 0.002 µM", "result": 0.559},
      {"measurement": "relative viability", "setting": "Dactolisib + Olaparib; first compound 0.006325 µM", "result": 0.56},
      {"measurement": "relative viability", "setting": "Dactolisib + Olaparib; first compound 0.02 µM", "result": 0.499},
      {"measurement": "relative viability", "setting": "Dactolisib + Olaparib; first compound 0.06325 µM", "result": 0.475},
      {"measurement": "relative viability", "setting": "Dactolisib + Olaparib; first compound 0.2 µM", "result": 0.399},
      {"measurement": "relative viability", "setting": "Dactolisib + Crizotinib; first compound 0.002 µM", "result": 0.974},
      {"measurement": "relative viability", "setting": "Dactolisib + Crizotinib; first compound 0.006325 µM", "result": 0.813},
      {"measurement": "relative viability", "setting": "Dactolisib + Crizotinib; first compound 0.02 µM", "result": 0.912},
      {"measurement": "relative viability", "setting": "Dactolisib + Crizotinib; first compound 0.06325 µM", "result": 0.556},
      {"measurement": "relative viability", "setting": "Dactolisib + Crizotinib; first compound 0.2 µM", "result": 0.391},
      {"measurement": "relative viability", "setting": "AZ505 + Linsitinib; first compound 0.08 µM", "result": 0.836},
      {"measurement": "relative viability", "setting": "AZ505 + Linsitinib; first compound 0.253 µM", "result": 1},
      {"measurement": "relative viability", "setting": "AZ505 + Linsitinib; first compound 0.8 µM", "result": 0.918},
      {"measurement": "relative viability", "setting": "AZ505 + Linsitinib; first compound 2.53 µM", "result": 0.983},
      {"measurement": "relative viability", "setting": "AZ505 + Linsitinib; first compound 8 µM", "result": 0.929},
      {"measurement": "relative viability", "setting": "Dactolisib + Pemetrexed; first compound 0.002 µM", "result": 0.568},
      {"measurement": "relative viability", "setting": "Dactolisib + Pemetrexed; first compound 0.006325 µM", "result": 0.44},
      {"measurement": "relative viability", "setting": "Dactolisib + Pemetrexed; first compound 0.02 µM", "result": 0.558},
      {"measurement": "relative viability", "setting": "Dactolisib + Pemetrexed; first compound 0.06325 µM", "result": 0.464},
      {"measurement": "relative viability", "setting": "Dactolisib + Pemetrexed; first compound 0.2 µM", "result": 0.474}
    ]},
    {"cell line": "SK-MES-1", "values": [
      {"measurement": "relative viability", "setting": "Dactolisib + Olaparib; first compound 0.002 µM", "result": 0.739},
      {"measurement": "relative viability", "setting": "Dactolisib + Olaparib; first compound 0.006325 µM", "result": 0.685},
      {"measurement": "relative viability", "setting": "Dactolisib + Olaparib; first compound 0.02 µM", "result": 0.531},
      {"measurement": "relative viability", "setting": "Dactolisib + Olaparib; first compound 0.06325 µM", "result": 0.286},
      {"measurement": "relative viability", "setting": "Dactolisib + Olaparib; first compound 0.2 µM", "result": 0.171},
      {"measurement": "relative viability", "setting": "Dactolisib + Crizotinib; first compound 0.002 µM", "result": 1.14},
      {"measurement": "relative viability", "setting": "Dactolisib + Crizotinib; first compound 0.006325 µM", "result": 0.989},
      {"measurement": "relative viability", "setting": "Dactolisib + Crizotinib; first compound 0.02 µM", "result": 0.986},
      {"measurement": "relative viability", "setting": "Dactolisib + Crizotinib; first compound 0.06325 µM", "result": 0.632},
      {"measurement": "relative viability", "setting": "Dactolisib + Crizotinib; first compound 0.2 µM", "result": 0.567},
      {"measurement": "relative viability", "setting": "AZ505 + Linsitinib; first compound 0.08 µM", "result": 0.89},
      {"measurement": "relative viability", "setting": "AZ505 + Linsitinib; first compound 0.253 µM", "result": 0.922},
      {"measurement": "relative viability", "setting": "AZ505 + Linsitinib; first compound 0.8 µM", "result": 0.97},
      {"measurement": "relative viability", "setting": "AZ505 + Linsitinib; first compound 2.53 µM", "result": 0.879},
      {"measurement": "relative viability", "setting": "AZ505 + Linsitinib; first compound 8 µM", "result": 1.03},
      {"measurement": "relative viability", "setting": "Dactolisib + Pemetrexed; first compound 0.002 µM", "result": 0.993},
      {"measurement": "relative viability", "setting": "Dactolisib + Pemetrexed; first compound 0.006325 µM", "result": 0.837},
      {"measurement": "relative viability", "setting": "Dactolisib + Pemetrexed; first compound 0.02 µM", "result": 0.847},
      {"measurement": "relative viability", "setting": "Dactolisib + Pemetrexed; first compound 0.06325 µM", "result": 0.417},
      {"measurement": "relative viability", "setting": "Dactolisib + Pemetrexed; first compound 0.2 µM", "result": 0.367}
    ]}
  ]
}
